Data on 26 molecules can be found in patent US11530220B2, “Substituted imidazo[1,5-a]pyrazines and [1,2,4]triazolo[4,3-a]pyrazines for the modulation of AhR” (IDEAYA BIOSCIENCES, INC., priority 2018, dated 2022).

For this experiment, the target named is T1, hAhR (Homo sapiens, UniProt P35869).
T1 construct: Stably integrated DRE-luciferase cell lines were generated by transducing the both cell lines with Cignal XRE luciferase reporter (Qiagen) lentiviral particles; endogenous in cells; host or cells: HEPG2 (human hepatoma) with stably integrated XRE/DRE-luciferase reporter
T1 sequence (P35869 11-848): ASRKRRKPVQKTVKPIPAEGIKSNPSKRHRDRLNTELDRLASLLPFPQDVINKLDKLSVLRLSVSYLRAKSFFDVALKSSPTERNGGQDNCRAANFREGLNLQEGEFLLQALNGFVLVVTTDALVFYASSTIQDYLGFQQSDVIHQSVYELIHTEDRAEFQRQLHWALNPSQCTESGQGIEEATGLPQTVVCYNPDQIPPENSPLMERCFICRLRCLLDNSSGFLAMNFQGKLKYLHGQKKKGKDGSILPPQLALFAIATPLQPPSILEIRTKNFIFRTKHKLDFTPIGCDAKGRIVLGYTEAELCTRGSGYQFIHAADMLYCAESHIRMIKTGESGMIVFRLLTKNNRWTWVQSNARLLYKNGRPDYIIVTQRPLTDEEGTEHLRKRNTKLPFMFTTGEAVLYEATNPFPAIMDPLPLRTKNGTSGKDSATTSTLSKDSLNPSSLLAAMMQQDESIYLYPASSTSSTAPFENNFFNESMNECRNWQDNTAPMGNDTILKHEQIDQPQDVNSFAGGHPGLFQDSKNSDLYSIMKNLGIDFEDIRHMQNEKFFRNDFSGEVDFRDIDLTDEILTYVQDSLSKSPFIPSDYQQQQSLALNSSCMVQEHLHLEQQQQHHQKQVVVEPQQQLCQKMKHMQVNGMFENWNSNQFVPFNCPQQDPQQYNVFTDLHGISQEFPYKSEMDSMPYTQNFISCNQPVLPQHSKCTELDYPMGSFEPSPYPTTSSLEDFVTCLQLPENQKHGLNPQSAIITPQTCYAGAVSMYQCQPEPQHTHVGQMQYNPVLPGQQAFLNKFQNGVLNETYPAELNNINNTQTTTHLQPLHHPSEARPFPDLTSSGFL
In words: DRE-luciferase transcriptional assay, antagonist mode, in HEPG2 DRE-Luc cells stimulated with TCDD. Type of experiment: cell-based. The settings on record: for Emax: read-out: HEPG2 % Max Inhibition; for IC50: relative IC50, read-out: IC50 hAhR (antagonist mode). On the procedure: HEPG2 and HEPA1C1C7 cells were maintained in MEM and αMEM without nucleosides supplemented with 10% heat inactivated FBS respectively. Stably integrated DRE-luciferase cell lines were generated by transducing the both cell lines with Cignal XRE luciferase reporter (Qiagen) lentiviral particles according to the manufacturer protocol. For both cell lines stably integrated reporter cell lines were selected for the presence of 2 μg/mL puromycin. Following selection of stably integrated cell line pools, clonal cell lines were isolated by limiting dilution in 96-well plates. Transcriptional assays were performed by seeding 100 μL of cells at a density of 250,000 or 100,000 cells/mL, for HEPG2 and HEPA1C1C7 DRE-Luc cells respectively, into 96-well cell culture plates in OptiMEM supplemented with 0.5% heat inactivated FBS and allowed to attach overnight. For antagonist assays, the compounds were added in a semi-log dose response using a D300e Digital Dispenser (Tecan) followed normalization with vehicle (DMSO). Immediately following compound addition […] of 2,3,7,8-Tetrachlorodibenzo-p-dioxin (TCDD) was added to the cells to a final concentration of 3 nM or 0.3 nM for the HEPG2 and HEPA1C1C7 DRE-Luc cells respectively. Following 24 h incubation the medium was removed and the cells were lysed in 25 μL of Reporter Lysis Buffer (Promega). Firefly luciferase activity was measured immediately following the addition of 50 μL Luciferase Assay Reagent (Promega). The percent maximal activity for each point was determined using the following equation: 100−(RLUsample−RLUvehicle−TCDD)/(RLUvehicle+TCDD RLUvehicle−TCDD)*100. The relative IC50, defined as the compound concentration required to reduce the TCDD induced response between the top and bottom plateau of each individual dose response curve by half, for each compound was determined using Prism 7 (GraphPad Software).

The mark [1] stands for this setting: HEPG2 DRE-Luc cells, 3 nM TCDD, 24 h incubation.

SMILES strings stand for the structures. Read-outs that look alike come from different tables or passages of the source.

By IC50 is commonly meant the concentration at which inhibition is half-maximal.

Regarding `Cc1cncc(-c2cn3c(C(C)C)nnc3c(NCCc3ccc(O)cc3)n2)c1` [Example 1], under setting [1], the Emax turned out to be 100% and the concentration for half-maximal inhibition (IC50) was 0.5 to 1 µM.
Turning to `CC(C)c1nnc2c(NCCc3ccc(O)cc3)nc(-c3cncc(C#N)c3)cn12` [Example 2, 5-(8-{[2-(4-hydroxyphenyl)ethyl]amino}-3-isopropyl-4-hydro-1,2,4-triazolo[4,3-a]pyrazin-6-yl)pyridine-3-carbonitrile], under setting [1], the Emax was 100% and the IC50 is < 0.2 µM.
For the molecule `Cc1cncc(-c2cn3c(C(C)C)nnc3c(NCCc3c[nH]c4ccccc34)n2)c1` [Example 3], under setting [1], the Emax came out at 100% and the IC50 was < 0.2 µM.
On to `CC(C)c1nnc2c(NCCc3c[nH]c4ccccc34)nc(-c3cncc(C#N)c3)cn12` [Example 4, 5-{8-[(2-indol-3-ylethyl)amino]-3-isopropyl-4-hydro-1,2,4-triazolo[4,3-a]pyrazin-6-yl}pyridine-3-carbonitrile], for which, under setting [1], the Emax came out at 100% and the 50% inhibitory concentration (IC50) is < 0.2 µM.
`Cc1cncc(-c2cn3c(C(C)C)cnc3c(NCCc3ccc(O)cc3)n2)c1` [Example 5]: under setting [1], the Emax was found to be 65% and the IC50 fell in the range of 0.5 to 1 µM.
In the case of `CC(C)c1cnc2c(NCCc3ccc(O)cc3)nc(-c3cncc(C#N)c3)cn12` [Example 6, 5-(8-{[2-(4-hydroxyphenyl)ethyl]amino}-3-isopropyl-4-hydroimidazo[1,2-a]pyrazin-6-yl)pyridine-3-carbonitrile], under setting [1], the Emax was 100% and the IC50 was in the range of 0.2 to 0.5 µM.
Regarding `Cc1cncc(-c2cn3c(C(C)C)cnc3c(NCCc3c[nH]c4ccccc34)n2)c1` [Example 7, (2-indol-3-ylethyl)[6-(5-methyl(3-pyridyl))-3-isopropyl-(4-hydroimidazo[1,2-a]pyrazin-8-yl)]amine], under setting [1], the Emax was 100% and the IC50 was < 0.2 µM.
Consider `CC(C)c1cnc2c(NCCc3c[nH]c4ccccc34)nc(-c3cncc(C#N)c3)cn12` [Example 8, 5-{8-[(2-indol-3-ylethyl)amino]-3-isopropyl-4-hydroimidazo[1,5-a]pyrazin-6-yl}pyridine-3-carbonitrile], for which, under setting [1], the Emax was 100% and the IC50 was < 0.2 µM.
For `Cc1cncc(-c2cn3c(C(C)C)ncc3c(NCCc3c[nH]c4ccccc34)n2)c1` [Example 9], under setting [1], the Emax turned out to be 100% and the IC50 lay within 0.2 to 0.5 µM.
As for `Cc1cncc(-c2cn3c(C(C)C)ncc3c(NCCc3ccc(O)cc3)n2)c1` [Example 10, 4-(2-{[6-(5-methyl(3-pyridyl))-3-isopropyl-4-hydroimidazo[1,5-a]pyrazin-8-yl]amino}ethyl)phenol], the IC50 under setting [1] fell in the range of 1 to 10 µM. Also, the Emax (HepG2, 24 h) worked out at 47%.
In the same order, the values of `Cc1nccn1-c1cn2c(C(C)C)cnc2c(NCCc2c[nH]c3c(F)cccc23)n1` [Example 11, [2-(7-fluoroindol-3-yl)ethyl][3-isopropyl-6-(2-methylimidazolyl)(4-hydroimidazo[1,2-a]pyrazin-8-yl)]amine] are < 0.2 µM and 100%.
Consider `Cc1nccn1-c1cn2c(C(C)C)cnc2c(NCCc2c[nH]c3cc(F)ccc23)n1` [Example 12, [2-(6-fluoroindol-3-yl)ethyl][3-isopropyl-6-(2-methylimidazolyl)(4-hydroimidazo[1,2-a]pyrazin-8-yl)]amine], for which, under setting [1], the Emax turned out to be 100% and the half-inhibitory concentration (IC50) is < 0.2 µM.
For the molecule `Cc1nccn1-c1cn2c(C(C)C)cnc2c(NCCc2c[nH]c3ccc(F)cc23)n1` [Example 13, [2-(5-fluoroindol-3-yl)ethyl][3-isopropyl-6-(2-methylimidazolyl)(4-hydroimidazo[1,2-a]-pyrazin-8-yl)]amine], under setting [1], the Emax was 99%.
Consider `Cc1nccn1-c1cn2c(C(C)C)cnc2c(NCCc2c[nH]c3cccc(F)c23)n1` [Example 14, [2-(4-fluoroindol-3-yl)ethyl][3-isopropyl-6-(2-methylimidazolyl)(4-hydroimidazo[1,2-a]-pyrazin-8-yl)]amine], for which, under setting [1], the Emax is 100% and the IC50 is < 0.2 µM.
In the same order, the values of `Cc1nccn1-c1cn2c(C(C)C)cnc2c(NCCc2c[nH]c3cccnc23)n1` [Example 15, [3-isopropyl-6-(2-methylimidazolyl)(4-hydroimidazo[1,2-a]pyrazin-8-yl)](2-pyrrolo[3,2-b]pyridin-3-ylethyl)amine] are 73% and 1 to 10 µM.
As for `Cc1nccn1-c1cn2c(C(C)C)cnc2c(NCCc2c[nH]c3ncccc23)n1` [Example 16, [3-isopropyl-6-(2-methylimidazolyl)(4-hydroimidazo[1,2-a]pyrazin-8-yl)](2-pyrrolo[2,3-b]pyridin-3-ylethyl)amine], under setting [1], the Emax is 83% and the IC50 was in the range of 1 to 10 µM.
Turning to `Cc1nccn1-c1cn2c(C(C)C)cnc2c(N[C@H](C)Cc2c[nH]c3ccccc23)n1` [Example 17a], under setting [1], the Emax is 100% and the IC50 lay within 0.5 to 1 µM.
In the case of `Cc1nccn1-c1cn2c(C(C)C)cnc2c(N[C@@H](C)Cc2c[nH]c3ccccc23)n1` [Example 17b, ((1S)-2-indol-3-yl-isopropyl)[3-isopropyl-6-(2-methylimidazolyl)(4-hydroimidazo[1,2-a]-pyrazin-8-yl)]amine], under setting [1], the Emax came to 81.3% and the concentration for half-maximal inhibition (IC50) fell in the range of 1 to 10 µM.
Take `Cc1nccn1-c1cn2c(C(C)C)cnc2c(NCCc2cc[nH]c2)n1` [Example 18, [3-isopropyl-6-(2-methylimidazolyl)(4-hydroimidazo[1,2-a]pyrazin-8-yl)](2-pyrrol-3-ylethyl)amine]: under setting [1], the Emax is 77% and the IC50 was in the range of 1 to 10 µM.
Consider `CC(C)c1cnc2c(NCCn3c(=O)[nH]c4ccccc43)nc(-c3cncc(F)c3)cn12` [Example 19], for which, under setting [1], the Emax was 100% and the IC50 was < 0.2 µM.
Consider `CC(C)c1cnc2c(NCCc3n[nH]c4ccccc34)nc(-c3cncc(F)c3)cn12` [Example 20], for which, under setting [1], the Emax came out at 100% and the IC50 is < 0.2 µM.
On to `CC(CO)c1cnc2c(NCCc3c[nH]c4cccc(F)c34)nc(-c3cncc(F)c3)cn12` (stereo not drawn) [Example 21, 2-(6-(5-fluoro-(3-pyridyl))-8-{[2-(4-fluoroindol-3-yl)ethyl]amino}-4-hydroimidazo[1,2-a]pyrazin-3-yl)propan-1-ol], for which the half-inhibitory concentration (IC50) under setting [1] is < 0.2 µM. For the same molecule, the Emax (HepG2, 24 h) is 100%.
For the molecule `Cc1nccn1-c1cn2c(C(C)C)cnc2c(NCCc2c[nH]c3cc(F)cc(F)c23)n1` [Example 22, [2-(4,6-difluoroindol-3-yl)ethyl][3-isopropyl-6-(2-methylimidazolyl)(4-hydroimidazo[1,2-a]pyrazin-8-yl)]amine], under setting [1], the Emax was 100% and the IC50 is < 0.2 µM.
The corresponding values for `Cc1nccn1-c1cn2c(C(C)C)cnc2c(NCc2cccc(C(N)=O)c2)n1` [Example 23, 3-({[3-isopropyl-6-(2-methylimidazolyl)-4-hydroimidazo[1,2-a]pyrazin-8-yl]amino}-methyl)benzamide] are 12% and 1 to 10 µM.
In the case of `CC(C)c1cnc2c(NCCc3c[nH]c4cccc(F)c34)nc(-c3cncc(F)c3)cn12` [Example 24], the half-inhibitory concentration (IC50) under setting [1] was < 0.2 µM. Also, the Emax (HepG2, 24 h) is 100%.
For `CC(C)c1cnc2c(NCCc3c[nH]c4cccc(F)c34)nc(-c3cnn(C)c3)cn12` [Example 25, [2-(4-fluoroindol-3-yl)ethyl][3-isopropyl-6-(1-methylpyrazol-4-yl)(4-hydroimidazo[1,2-a]-pyrazin-8-yl)]amine], under setting [1], the Emax was found to be 100% and the half-inhibitory concentration (IC50) is < 0.2 µM.
